This note sets out measurements from ChEMBL document CHEMBL1671637, “Development, stability, and molecular mechanisms of macrolide resistance in Campylobacter jejuni” (2008).

The term MIC denotes the smallest concentration in the dilution series that meets the test's criterion for growth inhibition. Low values mean a more susceptible organism, high ones a less susceptible organism.

Molecules are shown by their SMILES. Values after ≈ are worked out from the molar mass of the structure shown. Active and inactive are the calls of the source.

Experiment [1] concerns Campylobacter jejuni. As to the kind of experiment: Antimicrobial activity against Campylobacter jejuni DC6 infected in 3 days old chicken by agar dilution method. It is filed as functional. In general terms: In agar dilution the substance is mixed into plates at graded concentrations.
The test system of experiment [2] is Campylobacter jejuni. As to the kind of experiment: Antimicrobial activity against Campylobacter jejuni DC26 infected in chicken assessed as microbial shedding level after compound administration through feed for 20 days. It is filed as functional, organism-based.
Experiment [3] deals with Campylobacter jejuni. As to the kind of experiment: Antimicrobial activity against Campylobacter jejuni DC26 infected in 15 days old chicken food on medicated food by agar dilution method. In kind it is functional.
For experiment [4], the system named is Campylobacter jejuni. In words: Antimicrobial activity against Campylobacter jejuni DC2 infected in 15 days old chicken food on medicated food by agar dilution method. In kind it is functional.
Experiment [5] concerns Campylobacter jejuni. In words: Antimicrobial activity against Campylobacter jejuni DC2 infected in chicken assessed as microbial shedding level after compound administration through feed for 20 days. It is filed as functional, organism-based.
For experiment [6], the system named is Campylobacter jejuni. In words: Antimicrobial activity against Campylobacter jejuni DC2 infected in 3 days old chicken by agar dilution method. In kind it is functional.
Experiment [7] deals with Campylobacter jejuni. As to the kind of experiment: Antimicrobial activity against Campylobacter jejuni DC2 infected in 15 days old chicken by agar dilution method. In kind it is functional.

`CC[C@H]1OC(=O)C[C@@H](O)[C@H](C)[C@@H](O[C@@H]2O[C@H](C)[C@@H](O[C@H]3C[C@@](C)(O)[C@@H](O)[C@H](C)O3)[C@H](N(C)C)[C@H]2O)[C@@H](CC=O)C[C@@H](C)C(=O)/C=C/C(C)=C/[C@@H]1CO[C@@H]1O[C@H](C)[C@@H](O)[C@@H](OC)[C@H]1OC` [TYLOSIN]: the MIC with Campylobacter jejuni [1] was over 512 µg/mL; against Campylobacter jejuni [3], 128 µg/mL (≈ 140 µM); against Campylobacter jejuni [4], 64 µg/mL (≈ 69.9 µM); against Campylobacter jejuni [6], 64 µg/mL (≈ 69.9 µM); against Campylobacter jejuni [7] it was 64 µg/mL (≈ 69.9 µM). For the same molecule, the result with Campylobacter jejuni [2] and with Campylobacter jejuni [5] was inactive.
